Test results: patent US20250221988A1 (Cullgen (Shanghai), Inc., priority 2022, published 2025)
Read-outs that look alike come from different tables or passages of the source.

Legend:
MOLM-13 cells = assay: Cell viability assay (CellTiter-Glo) in MOLM-13 cells; type: cell-based; conditions: for sensitization of AML cells to GSPT1 degraders by FLT3 inhibition: with or without 20 nM gilteritinib, 3 days
MV4;11 cells = assay: Cell viability assay (CellTiter-Glo) in MV4;11 cells; type: cell-based; conditions: read-out: MV4
Outline: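 After three days' exposure to 3-fold serial compound dilutions (8 or 12 points), viability of cells seeded at 5000/well is read by CellTiter-Glo. Runs were done alone or combined with gilteritinib at 10 nM (MV4;11) or 20 nM (MOLM-13); IC50 from nonlinear regression.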

[1] = Homo sapiens, 72 h, MOLM-13 cells, compound alone, three days, read-out: MOLM-13 IC50
[2] = MOLM-13 cells, with gilteritinib, three days, read-out: MOLM-13 IC50 (nM) + 10 nM Gil
[3] = Homo sapiens, MV4-11, 72 h, MV4;11 cells, compound alone, three days, 11 IC50
[4] = MV4;11 cells, with 10 nM gilteritinib, three days, 11 IC50 (nM) + 10 nM Gil
[5] = MV4;11 cells, compound alone, three days, 11 IC50

SMILES	IC50 (MOLM-13 cells; [1])	IC50 (MOLM-13 cells; [2])	IC50 (MV4;11 cells; [3])	IC50 (MV4;11 cells; [4])	other results
O=C1CCC(N2C(=O)c3ccc(NC[C@H]4C[C@H](n5cc(Nc6ccccc6)c(C6CC6)n5)C4)cc3C2=O)C(=O)N1 (stereo partly drawn) [GS-739, 5-(((Trans-3-(3-Cyclopropyl-4-(phenylamino)-1H-pyrazol-1-yl)cyclobutyl)methyl)amino)-2-(2,6-dioxopiperidin-3-yl)isoindoline-1,3-dione]	–	–	–	–	IC50 (MOLM-13 cells; Homo sapiens, MOLM-13, 72 h, read-out: MOLM-13 IC50 (nM)): 10 to 100 nM; IC50 (MOLM-13 cells; read-out: MOLM-13 IC50 (nM) + 10 nM Gil, MOLM-13 cells, with gilteritinib, three days): < 10 nM; IC50 (MV4;11 cells; Homo sapiens, MV4-11, 72 h, 11 IC50 (nM)): 10 to 100 nM; IC50 (MV4;11 cells; 11 IC50 (nM) + 10 nM Gil, MV4;11 cells, with 10 nM gilteritinib, three days): < 10 nM
O=C1CCC(N2C(=O)c3ccc(NC[C@H]4C[C@H](n5nc(C6CC6)c6cc(N7CCNCC7)ccc65)C4)cc3C2=O)C(=O)N1 (stereo partly drawn) [GS-740, 5-(((Trans-3-(3-cyclopropyl-5-(piperazin-1-yl)-1H-indazol-1-yl)cyclobutyl)methyl)amino)-2-(2,6-dioxopiperidin-3-yl)isoindoline-1,3-dione]	> 1000 nM	100 to 1000 nM	> 1000 nM	–	–
O=C1CCC(N2C(=O)c3ccc(NC[C@H]4C[C@H](n5nc(C6CC6)cc5Cc5ccccc5)C4)cc3C2=O)C(=O)N1 (stereo partly drawn) [GS-741, 5-((Trans-3-(5-benzyl-3-cyclopropyl-1H-pyrazol-1-yl)cyclobutyl)methylamino)-2-(2,6-dioxopiperidin-3-yl)isoindoline-1,3-dione]	10 to 100 nM	10 to 100 nM	10 to 100 nM	< 10 nM	–
O=C1CCC(N2C(=O)c3ccc(NC[C@H]4C[C@H](n5nc(C6CC6)c6ccc(N7CCNCC7)cc65)C4)cc3C2=O)C(=O)N1 (stereo partly drawn) [GS-742, 5-(((Trans-3-(3-cyclopropyl-6-(piperazin-1-yl)-1H-indazol-1-yl)cyclobutyl)methyl)amino)-2-(2,6-dioxopiperidin-3-yl)isoindoline-1,3-dione]	> 1000 nM	100 to 1000 nM	> 1000 nM	100 to 1000 nM	–
CC(C)n1cc2c(-c3cn([C@H]4C[C@H](CNc5ccc6c(c5)C(=O)N(C5CCC(=O)NC5=O)C6=O)C4)nc3C3CC3)ncc(F)c2n1 (stereo partly drawn) [GS-743, 5-(((Trans-3-(3-cyclopropyl-4-(7-fluoro-2-isopropyl-2H-pyrazolo[4,3-c]pyridin-4-yl)-1H-pyrazol-1-yl)cyclobutyl)methyl)amino)-2-(2,6-dioxopiperidin-3-yl)isoindoline-1,3-dione]	< 10 nM	< 10 nM	< 10 nM	< 10 nM	–
Cc1cccc(-c2cn(C3CC4(CC(CCNc5ccc6c(c5)C(=O)N(C5CCC(=O)NC5=O)C6=O)C4)C3)nc2C2CC2)n1 (stereo not shown) [GS-749, 5-((2-(6-(3-Cyclopropyl-4-(6-methylpyridin-2-yl)-1H-pyrazol-1-yl)spiro[3.3]heptan-2-yl)ethyl)amino)-2-(2,6-dioxopiperidin-3-yl)isoindoline-1,3-dione]	10 to 100 nM	< 10 nM	10 to 100 nM	< 10 nM	sensitization of AML cells to GSPT1 degraders by FLT3 inhibition (MOLM-13 cells; MOLM-13 cells): FLT3 inhibition sensitizes AML cells
Cc1nc(-c2cn([C@H]3C[C@H](CCc4ccc5c(c4)CN(C4CCC(=O)NC4=O)C5=O)C3)nc2C2CC2)ccc1F (stereo partly drawn) [GS-753, 3-(5-(2-(Trans-3-(3-cyclopropyl-4-(5-fluoro-6-methylpyridin-2-yl)-1H-pyrazol-1-yl)cyclobutyl)ethyl)-1-oxoisoindolin-2-yl)piperidine-2,6-dione]	100 to 1000 nM	10 to 100 nM	10 to 100 nM	< 10 nM	–
Cc1nc(-c2cn([C@H]3C[C@H](C#Cc4ccc5c(c4)CN(C4CCC(=O)NC4=O)C5=O)C3)nc2C2CC2)ccc1F (stereo partly drawn) [GS-754, 3-(5-((Trans-3-(3-cyclopropyl-4-(5-fluoro-6-methylpyridin-2-yl)-1H-pyrazol-1-yl)cyclobutyl)ethynyl)-1-oxoisoindolin-2-yl)piperidine-2,6-dione]	> 1000 nM	100 to 1000 nM	> 1000 nM	100 to 1000 nM	–
Nc1cnc2c(c1)c(C1CC1)nn2[C@H]1C[C@H](CNc2ccc3c(c2)C(=O)N(C2CCC(=O)NC2=O)C3=O)C1 (stereo partly drawn) [GS-756, 5-(((Trans-3-(5-amino-3-cyclopropyl-1H-pyrazolo[3,4-b]pyridin-1-yl)cyclobutyl)methyl)amino)-2-(2,6-dioxopiperidin-3-yl)isoindoline-1,3-dione]	> 1000 nM	–	> 1000 nM	–	–
O=C1CCC(N2C(=O)c3ccc(NC[C@H]4C[C@H](n5nc(C6CC6)c6c(N7CCNCC7)cccc65)C4)cc3C2=O)C(=O)N1 (stereo partly drawn) [GS-757, 5-(((Trans-3-(3-cyclopropyl-4-(piperazin-1-yl)-1H-indazol-1-yl)cyclobutyl)methyl)amino)-2-(2,6-dioxopiperidin-3-yl)isoindoline-1,3-dione]	> 1000 nM	–	> 1000 nM	–	–
Cc1nc(-c2cn(C3CC(O)(CNc4ccc5c(c4)C(=O)N(C4CCC(=O)NC4=O)C5=O)C3)nc2C2CC2)ccc1F (stereo not drawn) [GS-759, 5-(((Cis-3-(3-cyclopropyl-4-(5-fluoro-6-methylpyridin-2-yl)-1H-pyrazol-1-yl)-1-hydroxycyclobutyl)methyl)amino)-2-(2,6-dioxopiperidin-3-yl)isoindoline-1,3-dione]	> 1000 nM	10 to 100 nM	–	10 to 100 nM	IC50 (MV4;11 cells; [5]): 100 to 1000 nM
Cc1nc(-c2cn(C3CC(O)(CNc4ccc5c(c4)C(=O)N(C4CCC(=O)NC4=O)C5=O)C3)nc2C2CC2)ccc1F (stereo not drawn) [GS-760, 5-(((trans-3-(3-cyclopropyl-4-(5-fluoro-6-methylpyridin-2-yl)-1H-pyrazol-1-yl)-1-hydroxycyclobutyl)methyl)amino)-2-(2,6-dioxopiperidin-3-yl)isoindoline-1,3-dione]	–	–	–	–	IC50 (MOLM-13 cells; MOLM-13 cells, compound alone, three days, read-out: MOLM-13 IC50): > 1000 nM; IC50 (MV4;11 cells; [5]): > 1000 nM
Cn1ncc2cnc(-c3cn([C@H]4C[C@H](COc5ccc6c(c5)C(=O)N(C5CCC(=O)NC5=O)C6=O)C4)nc3C3CC3)cc21 (stereo partly drawn) [GS-761, 5-((Trans-3-(3-cyclopropyl-4-(1-methyl-1H-pyrazolo[4,3-c]pyridin-6-yl)-1H-pyrazol-1-yl)cyclobutyl)methoxy)-2-(2,6-dioxopiperidin-3-yl)isoindoline-1,3-dione]	> 1000 nM	100 to 1000 nM	> 1000 nM	100 to 1000 nM	–

More lines, main results first:

IC50 (MOLM-13 cells; [1])	IC50 (MOLM-13 cells; [2])	IC50 (MV4;11 cells; [3])	IC50 (MV4;11 cells; [4])	SMILES	other results
> 1000 nM	–	> 1000 nM	–	O=C1CCC(N2C(=O)c3ccc(NC[C@H]4C[C@H](n5cc(-c6ncccc6C6CNC6)c(C6CC6)n5)C4)cc3C2=O)C(=O)N1 (stereo partly drawn) [GS-745, 5-(((Trans-3-(4-(3-(azetidin-3-yl)pyridin-2-yl)-3-cyclopropyl-1H-pyrazol-1-yl)cyclobutyl)methyl)amino)-2-(2,6-dioxopiperidin-3-yl)isoindoline-1,3-dione]	–
> 1000 nM	10 to 100 nM	100 to 1000 nM	10 to 100 nM	O=C1CCC(N2C(=O)c3ccc(NCC4CC(n5cc(-c6cnc7cc(C8CNC8)ccc7n6)c(C6CC6)n5)C4)cc3C2=O)C(=O)N1 (stereo not shown) [GS-746]	–
10 to 100 nM	< 10 nM	10 to 100 nM	< 10 nM	Cc1nc(-c2cn([C@H]3C[C@H](CNc4ccc5c(c4)C(=O)N(C4CCC(=O)NC4=O)C5=O)C3)nc2C2CC2)cc2c1cnn2C (stereo partly drawn) [GS-747, 5-(((Trans-3-(3-cyclopropyl-4-(1,4-dimethyl-1H-pyrazolo[4,3-c]pyridin-6-yl)-1H-pyrazol-1-yl)cyclobutyl)methyl)amino)-2-(2,6-dioxopiperidin-3-yl)isoindoline-1,3-dione]	–
< 10 nM	< 10 nM	< 10 nM	< 10 nM	O=C1CCC(N2C(=O)c3ccc(NC[C@H]4C[C@H](n5cc(-c6cc7nn(C8CC(O)C8)cc7cn6)c(C6CC6)n5)C4)cc3C2=O)C(=O)N1 (stereo partly drawn) [GS-750, 5-(((Trans-3-(3-cyclopropyl-4-(2-(3-hydroxycyclobutyl)-2H-pyrazolo[4,3-c]pyridin-6-yl)-1H-pyrazol-1-yl)cyclobutyl)methyl)amino)-2-(2,6-dioxopiperidin-3-yl)isoindoline-1,3-dione]	sensitization of AML cells to GSPT1 degraders by FLT3 inhibition (MOLM-13 cells; MOLM-13 cells): FLT3 inhibition sensitizes AML cells
10 to 100 nM	< 10 nM	< 10 nM	< 10 nM	O=C1CCC(N2C(=O)c3ccc(NC[C@H]4C[C@H](n5cc(-n6ccc7cccnc76)c(C6CC6)n5)C4)cc3C2=O)C(=O)N1 (stereo partly drawn) [GS-751, 5-(((Trans-3-(3-cyclopropyl-4-(1H-pyrrolo[2,3-b]pyridin-1-yl)-1H-pyrazol-1-yl)cyclobutyl)methyl)amino)-2-(2,6-dioxopiperidin-3-yl)isoindoline-1,3-dione]	–
< 10 nM	< 10 nM	< 10 nM	< 10 nM	O=C1CCC(N2C(=O)c3ccc(NC[C@H]4C[C@H](n5cc(-c6ncc(F)cc6OC6CC6)c(C6CC6)n5)C4)cc3C2=O)C(=O)N1 (stereo partly drawn) [GS-752, 5-(((Trans-3-(4-(3-cyclopropoxy-5-fluoropyridin-2-yl)-3-cyclopropyl-1H-pyrazol-1-yl)cyclobutyl)methyl)amino)-2-(2,6-dioxopiperidin-3-yl)isoindoline-1,3-dione]	–
10 to 100 nM	< 10 nM	10 to 100 nM	< 10 nM	CN1CC(c2ccc3nc(-c4cn([C@H]5C[C@H](CNc6ccc7c(c6)C(=O)N(C6CCC(=O)NC6=O)C7=O)C5)nc4C4CC4)cnc3c2)C1 (stereo partly drawn) [GS-755, 5-(((Trans-3-(3-cyclopropyl-4-(6-(1-methylazetidin-3-yl)quinoxalin-2-yl)-1H-pyrazol-1-yl)cyclobutyl)methyl)amino)-2-(2,6-dioxopiperidin-3-yl)isoindoline-1,3-dione]	–
